Reference: US6770747B1, “Genes encoding protein having activity of transferring sugar onto aurone” (Suntory Limited, priority 1999, dated 2004)
“Also recorded” adds a separate entry of the source.

Legend:
AmGT1 = assay: Glycosyl transferase activity of the AmGT1 cDNA recombinant protein; assay type: biochemical, snapdragons (Antirrhinum majus); details: crude extract, UDP-glucose, HPLC, as in Example 1
Protocol: (§1) To 50 μl of the crude enzyme solution were added 0.1 M Tris-HCl, pH 8.0, and 150 μl of 0.05% 2-ME, and then incubated at 30° C. for 10 minutes. Then 5 μl of 4.66 mM aureusidin and 50 μl of 5 mM UDP-glucose were added thereto, and was allowed to react at 30° C. for 1 hour. After the reaction was stopped by adding 200 μl of 90% acetonitrile containing 5% trifluoroacetic acid (TFA), it was centrifuged at 15,000 rpm and 4° C. for 3 minutes. The supernatant thus obtained was filtered (pore size 0.45 μm, 4 mm Millex-LH, Millipore) to remove insoluble substances. The filtrate was analyzed by high performance liquid chromatography.
(§2) The analytical condition was as follows: The column used was Asahipak-ODP-50 (4.6 mm φ×250 mm, Showa Denko). The mobile phase comprised water containing 0.1% TFA as solution A and 90% CH3CN containing 0.1% TFA as solution B. After a linear gradient from 20% solution B to 100% solution B for 20 minutes, 100% solution B was retained for 5 minutes. The flow rate was 0.6 ml/min. Detection used A380 nm, and an absorption spectrum at 250-400 nm using Shimadzu PDA detector SPD-M6A.
The transformant obtained in Example 4 was cultured, extracted and the enzymatic activity was measured as in Example 1.

Ph7GTa = assay: Glycosyl transferase activity of Ph7GTa cDNA recombinant protein; assay type: biochemical, petunia (Petunia hybrida); details: crude extract, UDP-glucose, HPLC, as in Example 1
Protocol: as §1, §2
(§3) The transformants obtained in Example 8 were cultured, extracted and the enzymatic activity was measured as in Example 1. The enzymatic activity was measured using aureusidin as the substrate. […]

Ph7GTb = assay: Glycosyl transferase activity of Ph7GTb cDNA recombinant protein; assay type: biochemical, petunia (Petunia hybrida); details: crude extract, UDP-glucose, HPLC, as in Example 1
Protocol: as §1, §2, §3

[1] = tested on: product of the pS.b UFGT1 gene; assay: Glycosyl transferase activity of pS.b UFGT1 gene product (crude E. coli extract, UDP-glucose, HPLC); assay type: biochemical, Scutellaria baicalensis; details: crude enzyme solution, 30° C., HPLC detection of glycosides
Protocol: The activity of the pS.b UFGT1 gene derived from Scutellaria baicalensis of transferring a glycosyl group to aurones was determined using an expression vector pESBGT-1 in E. coli prepared by the following method.
The PCR product was digested with NdeI and BamHI, and then was ligated to the NdeI- and BamHI-digested pET-3a vector (Stratagene) to construct pESBGT-1 (FIG. 1). Using each of pESBGT-1 and pET-3a vector, it was transformed into Epicurian Coli BL21 (DE3) (Stratagene). The transformants were incubated overnight at 37° C. in 3 ml of a LB medium containing 50 μg/ml of ampicillin. The preculture (500 μl) was added to 50 ml of a LB medium containing 50 μg/ml of ampicillin, and cultured until A600 reached 0.6-1.0. Then isopropyl-β-D-thiogalactopyranoside (IPTG) was added thereto to a final concentration of 0.5 mM, which was cultured at 28° C. for 4 hours and centrifuged (5000 rpm, 10 minutes, 4° C.) to collect the cells.
The pellets were suspended in 5 ml of the buffer (10 mM sodium phosphate, pH 6.5, 1 mM β-mercaptoethanol (2-ME)). After the E. coli cells were disrupted by a sonicator, it was centrifuged (15,000 rpm, 5 minutes, […]), and the supernatant obtained was used as a crude enzyme solution for the next enzyme reaction.
In addition to aureusidin, the enzymatic activity was determined using naringenin or luteolin as the substrate.
To 50 μl of the crude enzyme solution were added 0.1 M Tris-HCl, pH 8.0, and 150 μl of 0.05% 2-ME, and then incubated at 30° C. for 10 minutes. Then 5 μl of 4.66 mM aureusidin and 50 μl of 5 mM UDP-glucose were added thereto, and was allowed to react at 30° C. for 1 hour. […] The filtrate was analyzed by high performance liquid chromatography. […]
To 20 μl of the crude enzyme solution were added 25 μl of 0.1 M citric acid-phosphate buffer, pH 6.5, 5 μl each of 5 μM substrate, and 25 μl of 5 mM UDP-glucose in a total volume of 250 μl, and then incubated at 30° C. for 30 minutes. […] The filtrate was analyzed by high performance liquid chromatography. […]

[2] = tested on: product of the pS.b UFGT1 gene; details: substrate baicalein; cited from earlier work
[3] = molecular target: T1, flavonoid-3-glycosyl transferase derived from gentians (Gentiana triflora, UniProt Q96493); details: substance used as substrate; enzyme expressed in E coli; cited from earlier work
T1 construct: host or cells: E. coli
T1 sequence (Q96493 1-453): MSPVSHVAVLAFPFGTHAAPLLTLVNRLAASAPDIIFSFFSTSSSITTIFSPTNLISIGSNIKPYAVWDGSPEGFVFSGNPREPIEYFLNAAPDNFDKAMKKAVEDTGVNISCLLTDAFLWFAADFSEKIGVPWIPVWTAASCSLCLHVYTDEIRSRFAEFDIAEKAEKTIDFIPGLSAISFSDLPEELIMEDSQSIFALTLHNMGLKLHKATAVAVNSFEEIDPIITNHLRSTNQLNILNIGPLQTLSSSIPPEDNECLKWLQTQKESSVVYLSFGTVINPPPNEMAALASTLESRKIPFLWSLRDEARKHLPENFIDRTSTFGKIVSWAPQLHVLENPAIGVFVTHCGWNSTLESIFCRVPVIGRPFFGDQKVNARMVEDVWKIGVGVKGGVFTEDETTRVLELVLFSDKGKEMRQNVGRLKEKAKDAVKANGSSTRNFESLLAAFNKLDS

[4] = molecular target: T2, flavonoid-3-glycosyl transferase derived from grapes (Vitis vinifera, UniProt P51094); details: substance used as substrate; activity determined in E. coli; cited from earlier work
T2 construct: host or cells: E. coli
T2 sequence (P51094 1-456): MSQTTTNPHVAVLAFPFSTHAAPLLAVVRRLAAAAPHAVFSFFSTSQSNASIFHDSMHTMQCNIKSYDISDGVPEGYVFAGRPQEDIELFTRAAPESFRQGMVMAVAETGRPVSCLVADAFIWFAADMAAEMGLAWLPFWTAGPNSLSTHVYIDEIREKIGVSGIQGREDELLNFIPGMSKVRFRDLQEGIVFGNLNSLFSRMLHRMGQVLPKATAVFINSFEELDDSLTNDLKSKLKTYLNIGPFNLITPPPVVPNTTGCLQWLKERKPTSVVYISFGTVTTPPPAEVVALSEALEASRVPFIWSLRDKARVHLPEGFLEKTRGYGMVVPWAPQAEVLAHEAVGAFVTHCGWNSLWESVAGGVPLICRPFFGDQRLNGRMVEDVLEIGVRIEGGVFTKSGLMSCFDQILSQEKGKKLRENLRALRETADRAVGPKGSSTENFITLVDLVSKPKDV

Molecule | glycosilation of the substrate by the pS.b UFGT1 product [1] | glycosyl transferase activity relative to a 100% activity to delphinidins [3] [%] | other results
O=C1/C(=C/c2ccc(O)c(O)c2)Oc2cc(O)cc(O)c21 [aureusidin] | can glycosilate | – | glycosyl transfer to the substrate by AmGT1 (AmGT1): can transfer a glycosyl group to the positions 6 and 4; glycosilation of the substrate by Ph7GTa (Ph7GTa): activity of glycosilating; glycosilation of the substrate by Ph7GTb (Ph7GTb): activity of glycosilating
O=c1cc(-c2ccccc2)oc2cc(O)c(O)c(O)c12 [baicalein] | – | – | portion detected as 7 glycoside after the reaction is complete [2]: ~100%
O=c1c(O)c(-c2ccc(O)cc2)oc2cc(O)cc(O)c12 [kaempferol] | – | 7.0 | –
O=c1cc(-c2ccc(O)c(O)c2)oc2cc(O)cc(O)c12 [luteolin] | can glycosilate | – | –
O=c1c(O)c(-c2cc(O)c(O)c(O)c2)oc2cc(O)cc(O)c12 [myricetin] | – | 4.4 | –
O=C1C[C@@H](c2ccc(O)cc2)Oc2cc(O)cc(O)c21 [naringenin] | very little effect; also recorded: no reaction occurred | – | –
O=c1c(O)c(-c2ccc(O)c(O)c2)oc2cc(O)cc(O)c12 [quercetin] | – | 6.5 | Km [4]: 15 µM; Vmax [4]: 18.9 nkatals/mg
cyanidins | – | 61 | Km [4]: 30 µM; Vmax [4]: 905 nkatals/mg
delphinidins | – | 100 | –
pelargonidins | – | 38 | –
